Consider one sequence from US9457044B2, “Methods and compositions for wound healing” (CoDa Therapeutics, Inc., priority 2006, dated 2016).

In one data set the test system is Swiss 3T3 fibroblasts. Description: Cell migration assay by wounding (fibroblast scrape wound assay). The data set is classed as cell-based. The settings on record: 20 μM for two hours before scrape wound; 4 hours after wounding. On the procedure: (§1) Swiss 3T3 fibroblasts were grown in Dulbecco's modified Eagle's medium (DMEM; Gibco) supplemented with 10% fetal calf serum (Labtech) and 1% penicillinstreptomycin solution (Sigma, Poole) in a 5% CO2 incubator at 37° C. Unless otherwise stated, the cells were maintained in this medium for most experiments. The cells were passaged by trypsinization and used at passages 6-10 at a confluency of Z 90%. Cells were plated on 13 mm glass coverslips in 24-well dishes (Nunc) with 4−5×10^5 cells per well containing 1 ml of medium. Cells reached confluency after 72 hours and were then used for experimentation.
The fibroblast cell assay involved creating a “wound” in a confluent monolayer of fibroblast cells. This widely used in vitro technique mimics the behaviour of migrating cells in vivo (Lampugnani, M. G. (1999) Cell Migration into a wounded area in vitro. Methods Mol Biol 96: 177-182). Wounding was performed by drawing a microelectrode across the coverslip, producing a lesion of standard width. Phase contrast images were acquired using a ×5 objective on a Zeiss inverted microscope with an incubation chamber at 370 and 5% CO2. […] Migration was quantified by image analysis, measuring the change in wound area (pixels) using Image J software (NIH). […]

Another data set relates to Cx43 protein. Description: Cx43 protein knockdown in confluent fibroblast cultures. The settings on record: within two hours. The data set is classed as cell-based. Here is the method: as §1
In order to knock down Cx43 expression in the fibroblasts the media was replaced with serum-free DMEM containing either 20 μM asODNs or 20 μM control sODNs. This was incubated for two hours before being replaced with serum containing DMEM. The wounding assay was then carried out as above.

Turning to “GTAATTGCGGCAGGAGGAATTGTTTCTGTC (antisense GTAATTGCGGCAGGAGGAATTGTTTCTGTC; in Pluronic F-127 gel, further chemistry not given here) [Cx43 asODN]”, in the data set with Swiss 3T3 fibroblasts, the “rate of wound closure in fibroblast cultures compared to controls” value is given as “significantly (P=0.02) enhanced”. In addition, the “knockdown of Cx43 protein” value with Cx43 protein is 95%.
